What was measured:
Homo sapiens [1] = organism: Homo sapiens; assay: Compound was tested for its inhibitory concentration against human leukemic lymphoblasts ( CEM Cells ).; format: functional; settings: CCRF-CEM
Homo sapiens [2] = organism: Homo sapiens; assay: Compound was tested for its inhibitory concentration against human leukemic lymphoblasts (CEM Cells) and a resistant subline (CEM / MTX).; format: functional; settings: CCRF-CEM
L1210 [3] = assay: Compound was tested for its inhibitory concentration to inhibit the growth of wild type L1210 cells.; format: functional, cell-based, Mus musculus
L1210 [4] = assay: Compound was tested for its inhibitory concentration to inhibit the growth of wild type L1210 cells and a subline ( L1210 / R81 ).; format: functional, cell-based; settings: Mus musculus
Mus musculus [5] = assay: Increase in life span of mice with L1210 leukemia cells at a dose of 80 mg/kg; Toxic; format: functional, organism-based; design: dose 80 mg/kg
Mus musculus [6] = assay: Increase in life span of mice with L1210 leukemia cells at a dose of 20 mg/kg; format: functional
Mus musculus [7] = assay: Increase in life span of mice with L1210 leukemia cells at a dose of 40 mg/kg; format: functional
Mus musculus [8] = assay: Median Survival days of mice infected with L1210 leukemia cells at dose 20 mg/kg relative to that of 9 days for control; format: functional
Mus musculus [9] = assay: Median Survival days of mice infected with L1210 leukemia cells at dose 40 mg/kg relative to that of 9 days for control; format: functional
Mus musculus [10] = assay: Median Survival days of mice infected with L1210 leukemia cells at dose 80 mg/kg relative to that of 9 days for control; Toxic; format: functional, organism-based; design: dose 80 mg/kg
[11] = target: T1, Dihydrofolate reductase (Mus musculus) (UniProt P00375); settings: L1210
T1 sequence (whole entry): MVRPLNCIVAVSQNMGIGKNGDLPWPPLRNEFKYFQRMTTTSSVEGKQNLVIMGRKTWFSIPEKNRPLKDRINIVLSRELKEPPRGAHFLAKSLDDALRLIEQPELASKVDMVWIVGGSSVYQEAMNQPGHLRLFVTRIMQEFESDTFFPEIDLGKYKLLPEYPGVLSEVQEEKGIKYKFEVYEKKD
Description: Compound was tested for inhibition of the enzyme DiHydroFolate Reductase (DHFR) from murine L1210 leukemia cells

Dihydrofolate reductase = target: T2, Dihydrofolate reductase (Mus musculus, UniProt P00375); assay: biochemical
T2 sequence (P00375 whole entry): T1 sequence (whole entry)
Description: Compound was tested for its inhibitory concentration to inhibit the enzyme Dihydro Folate Reductase (DHFR) from murine L1210 leukemia cells.

Mus musculus [12] = organism: Mus musculus; assay: Compound was tested against weight change in mice with L1210 leukemia cells on 10 th Day at Dose 80 mg / kg; settings: at 80 mg/kg
Mus musculus [13] = organism: Mus musculus; assay: Compound was tested against weight change in mice with L1210 leukemia cells on 10 th Day at Dose 20 mg / kg; settings: at 20 mg/kg
Mus musculus [14] = organism: Mus musculus; assay: Compound was tested against weight change in mice with L1210 leukemia cells on 10 th Day at Dose 40 mg / kg; settings: at 40 mg/kg
Homo sapiens [15] = organism: Homo sapiens; assay: Compound was tested for its inhibitory concentration against human leukemic lymphoblasts (CEM Cells); format: functional; settings: CCRF-CEM
Mus musculus [16] = assay: Increase in life span of mice with L1210 leukemia cells at a dose of 0.5 mg/kg; format: functional
Mus musculus [17] = assay: Increase in life span of mice with L1210 leukemia cells at a dose of 1 mg/kg; format: functional
Mus musculus [18] = assay: Median Survival days of mice infected with L1210 leukemia cells at dose 0.5 mg/kg relative to that of 9 days for control; format: functional
Mus musculus [19] = assay: Median Survival days of mice infected with L1210 leukemia cells at dose 1 mg/kg relative to that of 9 days for control; format: functional
Mus musculus [20] = organism: Mus musculus; assay: Compound was tested against weight change in mice with L1210 leukemia cells on 7 th Day at Dose 0.5 mg / kg; format: functional; settings: at 0.5 mg/kg
Mus musculus [21] = organism: Mus musculus; assay: Compound was tested against weight change in mice with L1210 leukemia cells on 7 th Day at Dose 1 mg / kg; format: functional; settings: at 1 mg/kg

For `Nc1nc(N)c2nc(CNc3ccc(C(=O)NC(CCC(=O)NCc4ccccc4)C(=O)O)cc3)cnc2n1` (configuration not stated), the IC50 (Homo sapiens [1]) was 65 nM, the IC50 (Homo sapiens [2]) was 6000 nM and the IC50 (L1210 [3]; Mus musculus, L1210) was 5 nM. The IC50 (L1210 [3]; l1210) was 7.1 nM, the IC50 (L1210 [4]) was 17000 nM and the ILS (Mus musculus [5]) was “Toxic”. It also gave an ILS at 20 mg/kg (Mus musculus [6]) of 33%, an ILS at 40 mg/kg (Mus musculus [7]) of 56% and a Survival (Mus musculus [8]) of 12 days. The Survival (Mus musculus [9]) was 14 days, the Survival (Mus musculus [10]) was “Toxic” and the IC50/[E] [11] was 2.2. It also gave an IC50 (Dihydrofolate reductase) of 87 nM, a Weight change (Mus musculus [12]) of -26% and a Weight change (Mus musculus [13]) of 13%. The Weight change (Mus musculus [14]) was 3%.

Work on `Nc1nc(N)c2nc(CNc3ccc(C(=O)N[C@@H](CCC(=O)O)C(=O)O)cc3)cnc2n1` [AMINOPTERIN] yielded an IC50 (Homo sapiens [15]) of 1 nM, an IC50 (Homo sapiens [2]) of 320 nM and an IC50 (L1210 [3]; Mus musculus, L1210) of 3 nM. It also gave an ILS at 0.5 mg/kg (Mus musculus [16]) of 89%, an ILS at 1 mg/kg (Mus musculus [17]) of 122% and a Survival (Mus musculus [18]) of 17 days. The Survival (Mus musculus [19]) was 20 days, the Weight change (Mus musculus [20]) was -4% and the Weight change (Mus musculus [21]) was -5%. The IC50/[E] [11] was 0.5 and the IC50 (Dihydrofolate reductase) was 20 nM.
